What was measured:
[1] = tested on: wheat, winter; test: Test C postemergence; type: in vivo, Triticum aestivum
In short: (§1)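 Rated visually on 0–100 (100 = complete control) after 13–15 days under glass. Treatments went onto freshly seeded loam/sand soil or onto emerged plants at the 1- to 4-leaf stage, using a surfactant-containing solvent formulation.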

[2] = tested on: pigweed; test: Test C postemergence; type: in vivo, Amaranthus retroflexus
In short: as §1

[3] = tested on: blackgrass; test: Test C postemergence; type: in vivo, Alopecurus myosuroides; details: Alopecurus myosuroides, post-emergence
In short: as §1

[4] = tested on: velvetleaf; test: Test C postemergence; type: in vivo, Abutilon theophrasti
In short: as §1

[5] = tested on: ragweed; test: Test C postemergence; type: in vivo, Ambrosia elatior
In short: as §1

[6] = tested on: oilseed rape; test: Test C postemergence; type: in vivo, Brassica napus
From the text: (§2) Seeds of plant species selected from blackgrass (Alopecurus myosuroides), Italian ryegrass (Lolium multiflorum), wheat, winter (winter wheat, Triticum aestivum), galium (catchweed bedstraw, Galium aparine), corn (Zea mays), large (Lg) crabgrass (Digitaria sanguinalis), giant foxtail (Setaria faberii), johnsongrass (Sorghum halepense), lambsquarters (Chenopodium album), morningglory (Ipomoea coccinea), yellow nutsedge (Cyperus esculentus), pigweed (Amaranthus retroflexus), ragweed (common ragweed, Ambrosia elatior), soybean (Glycine max), barnyardgrass (Echinochloa crus-galli), oilseed rape (Brassica napus), waterhemp (common waterhemp, Amaranthus rudis), kochia (Kochia scoparia), wild oat (Avena fatua), surinam grass (Brachiaria decumbens), foxtail, green (green foxtail, Setaria viridis), goosegrass (Eleusine indica), bromegrass, downy (downy bromegrass, Bromus tectorum), nightshade (eastern black nightshade, Solanum ptycanthum), cocklebur (common cocklebur, Xanthium strumarium), cupgrass, woolly (woolly cupgrass, Eriochloa villosa), bermudagrass (Cynodon dactylon), sunflower, (common oilseed sunflower, Helianthus annuus), Russian thistle (Salsola kali), and velvetleaf (Abutilon theophrasti) were planted into a blend of loam soil and sand and treated preemergence with test chemicals formulated in a non-phytotoxic solvent mixture which included a surfactant.
(§3) At the same time, plants selected from these crop and weed species and also barley, winter (winter barley, Hordeum vulgare), windgrass (Apera spica-venti), chickweed (common chickweed, Stellaria media), deadnettle (henbit deadnettle, Lamium amplexicaule), and canarygrass (littleseed canarygrass, Phalaris minor) were planted in pots containing Redi-Earth® planting medium (Scotts Company, 14111 Scottslawn Road, Marysville, Ohio 43041) comprising spaghnum peat moss, vermiculite, wetting agent and starter nutrients and treated with postemergence applications of test chemicals formulated in the same manner. Plants ranged in height from 2 to 18 cm (1- to 4-leaf stage) for postemergence treatments. Treated plants and controls were maintained in a greenhouse for 13 to 15 days, after which time all species were compared to controls and visually evaluated. Plant response ratings, summarized in Table C, are based on a scale of 0 to 100 where 0 is no effect and 100 is complete control. A dash (-) response means no test result.

[7] = tested on: waterhemp; test: Test C postemergence; type: in vivo, Amaranthus rudis
From the text: as §2, §3

[8] = tested on: kochia; test: Test C postemergence; type: in vivo, Kochia scoparia; details: Bassia scoparia, post-emergence
In short: as §1

[9] = tested on: corn; test: Test A postemergence; type: in vivo, Zea mays; details: Zea mays, post-emergence, 240 h, 1000 g ai/ha, 0 to 100 scale, 0 no effect, 100 complete control, read-out: Plant response rating Corn
In short: (§4)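 Visual 0–100 rating (100 = complete control) taken about 10 d post-treatment relative to untreated checks. Preemergence: directed soil spray on sown loam/sand pots. Postemergence: seedlings 2–10 cm, 1–2 leaf. Non-phytotoxic solvent formulation with surfactant.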

[10] = tested on: soybean; test: Test C postemergence; type: in vivo, Glycine max
In short: as §1

[11] = tested on: johnsongrass; test: Test C postemergence; type: in vivo, Sorghum halepense
In short: as §1

[12] = tested on: galium; test: Test C postemergence; type: in vivo, Galium aparine; details: Galium, post-emergence
In short: as §1

[13] = tested on: giant foxtail; test: Test A preemergence; type: in vivo, Setaria faberii; details: Setaria faberi, pre-emergence, 240 h, 1000 g ai/ha, 0 to 100 scale, 0 no effect, 100 complete control, approx. 10 days, read-out: Foxtail, Giant plant response rating
In short: as §4

[14] = 31 g ai/ha, postemergence, visual rating, scale 0 to 100 (0 no effect, 100 complete control), 13 to 15 days

Clc1cnc(Oc2ccccc2-n2cc(C3CC3)nn2)nc1 [Compound 160, 5-chloro-2-[2-(4-cyclopropyl-1H-1,2,3-triazol-1-yl)phenoxy]pyrimidine]
Wheat plant response rating [1, 14]: 5
plant injury at 16 g/ha ([1]; Triticum aestivum, post-emergence, 16 g ai/ha, postemergence, 0 is no effect, 100 is complete control, read-out: Plant response rating (0 to 100), Wheat): 0%
plant injury at 125 g/ha ([1]; Triticum aestivum, post-emergence, 125 g ai/ha, postemergence, visual rating, scale 0 to 100 (0 no effect, 100 complete control), read-out: Plant response rating, Wheat): 5%
plant injury at 62 g/ha ([1]; Triticum aestivum, post-emergence, Postemergence, 62 g ai/ha, scale 0 to 100 (0 no effect, 100 complete control), read-out: Plant response rating, Wheat): 5%
Pigweed plant response rating [2, 14]: 75
pest or weed control at 16 g/ha ([2]; Amaranthus retroflexus, post-emergence, 16 g ai/ha, postemergence, 0 is no effect, 100 is complete control, read-out: Plant response rating (0 to 100), Pigweed): 80%
pest or weed control at 125 g/ha ([2]; Amaranthus retroflexus, post-emergence, 125 g ai/ha, postemergence, visual rating, scale 0 to 100 (0 no effect, 100 complete control), read-out: Plant response rating, Pigweed): 85%
pest or weed control at 62 g/ha ([2]; Amaranthus retroflexus, post-emergence, Postemergence, 62 g ai/ha, scale 0 to 100 (0 no effect, 100 complete control), read-out: Plant response rating, Pigweed): 75%
pest or weed control at 16 g/ha ([3]; 16 g ai/ha, postemergence, 0 is no effect, 100 is complete control, read-out: Plant response rating (0 to 100), Blackgrass): 0%
pest or weed control at 31 g/ha ([3]; 31 g ai/ha, postemergence, visual rating, scale 0 to 100 (0 no effect, 100 complete control), 13 to 15 days, read-out: Blackgrass plant response rating): 0%
pest or weed control at 125 g/ha ([3]; 125 g ai/ha, postemergence, visual rating, scale 0 to 100 (0 no effect, 100 complete control), read-out: Plant response rating, Blackgrass): 15%
pest or weed control at 62 g/ha ([3]; Postemergence, 62 g ai/ha, scale 0 to 100 (0 no effect, 100 complete control), read-out: Plant response rating, Blackgrass): 5%
Velvetleaf plant response rating [4, 14]: 65
pest or weed control at 16 g/ha ([4]; Abutilon theophrasti, post-emergence, 16 g ai/ha, postemergence, 0 is no effect, 100 is complete control, read-out: Plant response rating (0 to 100), Velvetleaf): 45%
pest or weed control at 125 g/ha ([4]; Abutilon theophrasti, post-emergence, 125 g ai/ha, postemergence, visual rating, scale 0 to 100 (0 no effect, 100 complete control), read-out: Plant response rating, Velvetleaf): 90%
pest or weed control at 62 g/ha ([4]; Abutilon theophrasti, post-emergence, Postemergence, 62 g ai/ha, scale 0 to 100 (0 no effect, 100 complete control), read-out: Plant response rating, Velvetleaf): 80%
Ragweed plant response rating [5, 14]: 45
pest or weed control at 16 g/ha ([5]; Ambrosia artemisiifolia, post-emergence, 16 g ai/ha, postemergence, 0 is no effect, 100 is complete control, read-out: Plant response rating (0 to 100), Ragweed): 10%
pest or weed control at 125 g/ha ([5]; Ambrosia artemisiifolia, post-emergence, 125 g ai/ha, postemergence, visual rating, scale 0 to 100 (0 no effect, 100 complete control), read-out: Plant response rating, Ragweed): 70%
pest or weed control at 62 g/ha ([5]; Ambrosia artemisiifolia, post-emergence, Postemergence, 62 g ai/ha, scale 0 to 100 (0 no effect, 100 complete control), read-out: Plant response rating, Ragweed): 60%
Oilseed Rape plant response rating [6, 14]: 55
plant injury at 16 g/ha ([6]; Brassica napus, post-emergence, 16 g ai/ha, postemergence, 0 is no effect, 100 is complete control, read-out: Plant response rating (0 to 100), Oilseed Rape): 10%
plant injury at 125 g/ha ([6]; Brassica napus, post-emergence, 125 g ai/ha, postemergence, visual rating, scale 0 to 100 (0 no effect, 100 complete control), read-out: Plant response rating, Oilseed Rape): 60%
plant injury at 62 g/ha ([6]; Brassica napus, post-emergence, Postemergence, 62 g ai/ha, scale 0 to 100 (0 no effect, 100 complete control), read-out: Plant response rating, Oilseed Rape): 60%
Waterhemp plant response rating [7, 14]: 35
pest or weed control at 16 g/ha ([7]; Amaranthus tuberculatus, post-emergence, 16 g ai/ha, postemergence, 0 is no effect, 100 is complete control, read-out: Plant response rating (0 to 100), Waterhemp): 70%
pest or weed control at 125 g/ha ([7]; Amaranthus tuberculatus, post-emergence, 125 g ai/ha, postemergence, visual rating, scale 0 to 100 (0 no effect, 100 complete control), read-out: Plant response rating, Waterhemp): 85%
pest or weed control at 62 g/ha ([7]; Amaranthus tuberculatus, post-emergence, Postemergence, 62 g ai/ha, scale 0 to 100 (0 no effect, 100 complete control), read-out: Plant response rating, Waterhemp): 70%
pest or weed control at 16 g/ha ([8]; 16 g ai/ha, postemergence, 0 is no effect, 100 is complete control, read-out: Plant response rating (0 to 100), Kochia): 85%
pest or weed control at 31 g/ha ([8]; 31 g ai/ha, postemergence, visual rating, scale 0 to 100 (0 no effect, 100 complete control), 13 to 15 days, read-out: Kochia plant response rating): 90%
pest or weed control at 125 g/ha ([8]; 125 g ai/ha, postemergence, visual rating, scale 0 to 100 (0 no effect, 100 complete control), read-out: Plant response rating, Kochia): 100%
pest or weed control at 62 g/ha ([8]; Postemergence, 62 g ai/ha, scale 0 to 100 (0 no effect, 100 complete control), read-out: Plant response rating, Kochia): 98%
plant injury at 1000 g/ha [9]: 100%
Soybean plant response rating [10, 14]: 55
Soybean plant response rating (crop injury, 0-100 scale) at 16 g/ha ([10]; Glycine max, post-emergence, 16 g ai/ha, postemergence, 0 is no effect, 100 is complete control): 40%
Soybean plant response rating (crop injury, 0-100 scale) at 125 g/ha ([10]; Glycine max, post-emergence, 125 g ai/ha, postemergence, visual rating, scale 0 to 100 (0 no effect, 100 complete control), read-out: Plant response rating, Soybean): 60%
Soybean plant response rating (crop injury, 0-100 scale) at 62 g/ha ([10]; Glycine max, post-emergence, Postemergence, 62 g ai/ha, scale 0 to 100 (0 no effect, 100 complete control)): 60%
Johnsongrass plant response rating [11, 14]: 0
pest or weed control at 16 g/ha ([11]; Sorghum halepense, post-emergence, 16 g ai/ha, postemergence, 0 is no effect, 100 is complete control, read-out: Plant response rating (0 to 100), Johnsongrass): 0%
pest or weed control at 125 g/ha ([11]; Sorghum halepense, post-emergence, 125 g ai/ha, postemergence, visual rating, scale 0 to 100 (0 no effect, 100 complete control), read-out: Plant response rating, Johnsongrass): 5%
pest or weed control at 62 g/ha ([11]; Sorghum halepense, post-emergence, Postemergence, 62 g ai/ha, scale 0 to 100 (0 no effect, 100 complete control), read-out: Plant response rating, Johnsongrass): 0%
pest or weed control at 16 g/ha ([12]; 16 g ai/ha, postemergence, 0 is no effect, 100 is complete control, read-out: Plant response rating (0 to 100), Galium): 80%
pest or weed control at 31 g/ha ([12]; 31 g ai/ha, postemergence, visual rating, scale 0 to 100 (0 no effect, 100 complete control), 13 to 15 days, read-out: Galium plant response rating): 80%
pest or weed control at 125 g/ha ([12]; 125 g ai/ha, postemergence, visual rating, scale 0 to 100 (0 no effect, 100 complete control), read-out: Plant response rating, Galium): 85%
pest or weed control at 62 g/ha ([12]; Postemergence, 62 g ai/ha, scale 0 to 100 (0 no effect, 100 complete control), read-out: Plant response rating, Galium): 95%
pest or weed control at 1000 g/ha [13]: 100%

— patent US9695155B2, “Herbicidal substituted pyrimidinyloxy benzene compounds” (E. I. DU PONT DE NEMOURS AND COMPANY, priority 2013, dated 2017)
